US20180282735A1, “PHARMACEUTICAL COMPOSITION FOR NEURODEGENERATIVE BRAIN DISEASE AND SCREENING METHOD FOR THE SAME” (MACROGEN, INC., priority 2017, published 2018)

Tests used:
HEK293 tau-BiFC cells = assay type: cell-based; conditions: for level of tau phosphorylation: HEK293 Tau-BiFC cell line, FIG. 5b; for tau accumulation (tau-BiFC): HEK293 tau-BiFC, FIG. 5
Excerpt: (§1) The establishment of the HEK293/tau-BiFC cell line was previously described (Tak H, Hague M M, Kim M J, Lee J H, Baik J H, Kim Y et al. Himolecular fluorescence complementation; lighting-up Tau-Tau interaction in living cells. PLOS One 2013; 8: e81682). Venus fluorescence protein amino-terminal fragment (VN 173) and carboxyl-terminal fragment (VC 155), which are independently non-fluorescent, were fused to full-length tau proteins. For neuronal cell expression, tau-BiFC constructs (pCMV6-hTau40-VN173 and pCMV6-hTau-VC155) were transfected into SH-SY5Y. SH-SY5Y/tau-BiFC stable cells were selected using Geneticin (200 μg/ml). […] All established cell lines were grown in Dulbecco's modified eagle medium containing 10% fetal bovine serum, […] and 1 μg/ml of Geneticin at 37° C. in a humidified atmosphere containing 5% CO2.
(§2) For microscopic image analysis, HEK293 tau-BiFC and SH-SY5Y tau-BiFC cells were plated onto a black 384-well plate. The next day, tau-BiFC cells were treated with okadaic acid (O8010, Sigma), cyclosporine A (C3662, Sigma) or deltamethrin (D9315, Sigma) at various concentrations. After incubation for 29 hours, the plate was imaged using the Operetta® high contents imaging system (PerkinElmer). The cellular intensities of tau-BiFC fluorescence were analyzed using the Harmony® 3.1 analysis software. Each experiment was performed in triplicate. The bar graphs for BiFC intensity indicate the means ±SEM from three independent experiments.

SH-SY5Y tau-BiFC cells = assay type: cell-based; conditions: for level of tau phosphorylation: SH-SY5Y Tau-BiFC cell line, FIG. 5b; for dose dependence of tau phosphorylation level: SH-SY5Y Tau-BiFC, various concentrations, 29 hours, FIG. 5c; for tau accumulation (tau-BiFC): SH-SY5Y tau-BiFC, FIG. 5
Excerpt: as §1, §2

PP2B = biological target: T1, PP2B (Homo sapiens, UniProt Q08209); conditions: by binding to cyclophilin or FKBP respectively; cited from earlier work
T1 construct: endogenous in cells; host or cells: SH-SY5Y/tau-BiFC and HEK293/tau-BiFC cells

| Compound | level of tau phosphorylation (HEK293 tau-BiFC cells) | intensity of tau phosphorylation (HEK293 tau-BiFC cells; HEK 293 cell line, FIG. 5d) | tau accumulation (tau-BiFC) (HEK293 tau-BiFC cells) | level of tau phosphorylation (SH-SY5Y tau-BiFC cells) | dose dependence of tau phosphorylation level (SH-SY5Y tau-BiFC cells) | tau accumulation (tau-BiFC) (SH-SY5Y tau-BiFC cells) | enzyme activity inhibition (PP2B) |
| --- | --- | --- | --- | --- | --- | --- | --- |
| C=C1[C@@H](O)[C@@H]2O[C@]3(CC[C@H](/C=C/[C@@H](C)[C@@H]4CC(C)=C[C@@]5(O[C@H](C[C@@](C)(O)C(=O)O)CC[C@H]5O)O4)O3)CC[C@H]2O[C@@H]1[C@@H](O)C[C@H](C)[C@H]1O[C@@]2(CCCCO2)CC[C@H]1C [okadaic acid] | increased | higher intensity of tau phosphorylation | increase of tau accumulation | increased | elevated the level of tau phosphorylation in a dose-dependent manner | increase of tau accumulation |  |
| cyclosporine A | increased |  | increase of tau accumulation | increased | elevated the level of tau phosphorylation in a dose-dependent manner | increase of tau accumulation | inhibits specifically enzyme activity |
| CC1(C)[C@H](C(=O)O[C@H](C#N)c2cccc(Oc3ccccc3)c2)[C@@H]1C=C(Br)Br [deltamethrin] | increased |  | increase of tau accumulation | increased | declining trend after the threshold of 3 μM | increase of tau accumulation |  |
